ChEMBL document CHEMBL1146583, “Acetylenic acids inhibiting azole-resistant Candida albicans from Pentagonia gigantifolia” (J Nat Prod, 2003)
Converted amounts (≈) assume the structure as drawn. The source made the active and inactive calls. The calls are words filed in the database; no cut-off is given here.

Key:
[1] = tested on: Candida albicans; assay: Antifungal activity against Candida albicans ATCC 90028 by sphingolipid reversal assay in presence of 2.5 ug/mL dihydrosphingosine; assay type: functional, organism-based
[2] = tested on: Candida albicans; assay: Antifungal activity against Candida albicans ATCC 90028 by sphingolipid reversal assay in presence of 15 ug/mL stearylamine; assay type: functional, organism-based
[3] = tested on: Candida albicans; assay: Antifungal activity against Candida albicans ATCC 90028 after 24 to 48 hrs by NCCLS method; assay type: functional, organism-based
[4] = tested on: Candida albicans; assay: Antifungal activity against Candida albicans ATCC 90028 by sphingolipid reversal assay in presence of 5.0 ug/mL dihydrosphingosine; assay type: functional, organism-based
[5] = tested on: Candida albicans; assay: Antifungal activity against Candida albicans ATCC 90028 by sphingolipid reversal assay in presence of 1.25 ug/mL dihydrosphingosine; assay type: functional, organism-based
[6] = tested on: Candida albicans; assay: Antifungal activity against Candida albicans ATCC 90028 by sphingolipid reversal assay in presence of 30 ug/mL stearylamine; assay type: functional, organism-based
[7] = tested on: Candida albicans; assay: Antifungal activity against Candida albicans ATCC 90028 by sphingolipid reversal assay in presence of 5 ug/mL stearylamine; assay type: functional, organism-based
[8] = tested on: Candida albicans; assay: Antifungal activity against fluconazole-resistant Candida albicans isolate 2 after 24 to 48 hrs by NCCLS method; assay type: functional, organism-based; details: for IC50 / IC80: Candida albicans
[9] = tested on: Candida albicans; assay: Antifungal activity against fluconazole-resistant Candida albicans isolate 17 at 100 ug/mL after 24 to 48 hrs by NCCLS method; assay type: functional, organism-based
[10] = tested on: Candida albicans; assay: Antifungal activity against fluconazole-resistant Candida albicans isolate 5 after 24 to 48 hrs by NCCLS method; assay type: functional, organism-based; details: for IC50 / IC80: Candida albicans
[11] = tested on: Candida albicans; assay: Antifungal activity against fluconazole-resistant Candida albicans isolate 17 after 24 to 48 hrs by NCCLS method; assay type: functional, organism-based; details: for IC50 / IC80: Candida albicans
[12] = tested on: Candida albicans; assay: Antifungal activity against fluconazole-susceptible Candida albicans isolate 1 after 24 to 48 hrs by NCCLS method; assay type: functional, organism-based; details: for IC80 / IC50: Candida albicans
[13] = tested on: Candida albicans; assay: Antifungal activity against fluconazole-resistant Candida albicans isolate 8 after 24 to 48 hrs by NCCLS method; assay type: functional, organism-based; details: for IC50 / IC80: Candida albicans
[14] = tested on: Vero; assay: Cytotoxicity against african green monkey Vero cells at 10 ug/mL; assay type: cell-based; details: chlorocebus sabaeus
[15] = tested on: SK-MEL; assay: Cytotoxicity against human SK-MEL cells at 10 ug/mL; assay type: functional, cell-based
[16] = tested on: BT-549; assay: Cytotoxicity against human BT549 cells at 10 ug/mL; assay type: functional, cell-based
[17] = tested on: KB; assay: Cytotoxicity against human KB cells at 10 ug/mL; assay type: functional, cell-based
[18] = tested on: SK-OV-3; assay: Cytotoxicity against human SKOV3 cells at 10 ug/mL; assay type: functional, cell-based

SMILES	IC50 [1] [µg/mL]	IC50 [2] [µg/mL]	IC50 [3] [µg/mL]	MIC [3] [µg/mL]	IC50 [4] [µg/mL]	IC50 [5] [µg/mL]	IC50 [6] [µg/mL]	IC50 [7] [µg/mL]	Fungicidal [8] [µg/mL]	IC50 [8] [µg/mL]	IC80 [8] [µg/mL]	Fungicidal [10] [µg/mL]	IC50 [10] [µg/mL]	IC80 [10] [µg/mL]	IC50 [11] [µg/mL]	IC80 [11] [µg/mL]	Fungicidal [12] [µg/mL]	IC80 [12] [µg/mL]	Fungicidal [13] [µg/mL]	IC50 [13] [µg/mL]	also measured
Nc1nc(=O)[nH]cc1F [FLUCYTOSINE]	0.15	0.2	0.47 (≈ 3.64 µM)	1.04 (≈ 8.06 µM)	0.1	0.2	0.25	0.25													
CCCCCCCCCCCC#CCCCCC(=O)OC																					Activity [3]: inactive
CCCCCCCCCCCCC#CCCCCC(=O)OC																					Activity [3]: inactive
C[C@@H]1[C@H](O)[C@@H](C)/C=C/C=C/C=C/C=C/C=C/C=C/C=C/[C@H](O[C@@H]2O[C@H](C)[C@@H](O)[C@H](N)[C@@H]2O)C[C@@H]2O[C@](O)(C[C@@H](O)C[C@@H](O)[C@H](O)CC[C@@H](O)C[C@@H](O)CC(=O)O[C@H]1C)C[C@H](O)[C@H]2C(=O)O [AMPHOTERICIN B]		0.4	0.23 (≈ 0.249 µM)	0.52 (≈ 0.563 µM)			0.65														
OC(Cn1cncn1)(Cn1cncn1)c1ccc(F)cc1F [FLUCONAZOLE]	0.5	0.8		0.29 (≈ 0.947 µM)	0.7	0.3	0.75	0.65	10	1 (≈ 3.27 µM)	5 (≈ 16.3 µM)	10	7.5 (≈ 24.5 µM)	10 (≈ 32.7 µM)	40 (≈ 131 µM)	95 (≈ 310 µM)	2	0.2 (≈ 0.653 µM)	25	15 (≈ 49 µM)	Activity [9]: inactive; IC80 [13]: 20 µg/mL (≈ 65.3 µM)
CCCCCCCCCCCC#CCCCCC(=O)O [6-OCTADECYNOIC ACID]	2	15	0.38 (≈ 1.35 µM)	1.04 (≈ 3.71 µM)	4.5	0.7	30	3.5	0.75	0.5 (≈ 1.78 µM)	0.65 (≈ 2.32 µM)	2	0.7 (≈ 2.5 µM)	1 (≈ 3.57 µM)	0.65 (≈ 2.32 µM)	1 (≈ 3.57 µM)	0.7	0.6 (≈ 2.14 µM)	1.5	0.9 (≈ 3.21 µM)	Activity [14]: Not Active; Activity [15]: inactive; Activity [16]: inactive; Activity [17]: inactive; Activity [18]: inactive; Fungicidal [11]: 1.5 µg/mL; IC50 [12]: 0.45 µg/mL (≈ 1.6 µM); IC80 [13]: 1 µg/mL (≈ 3.57 µM)
CCCCCCCCCCCCC#CCCCCC(=O)O [6-NONADECYNOIC ACID]	2	15	0.33 (≈ 1.12 µM)	0.52 (≈ 1.77 µM)	4.5	1	35	5	0.35	0.25 (≈ 0.849 µM)	0.3 (≈ 1.02 µM)	0.8	0.45 (≈ 1.53 µM)	0.6 (≈ 2.04 µM)	0.45 (≈ 1.53 µM)	0.6 (≈ 2.04 µM)	0.45	0.35 (≈ 1.19 µM)	0.8	0.5 (≈ 1.7 µM)	Activity [14]: Not Active; Activity [15]: inactive; Activity [16]: inactive; Activity [17]: inactive; Activity [18]: inactive; Fungicidal [11]: 0.7 µg/mL; IC50 [12]: 0.25 µg/mL (≈ 0.849 µM); IC80 [13]: 0.65 µg/mL (≈ 2.21 µM)
